From patent US20230149418A1, “METHODS AND SYNERGIC COMPOSITIONS FOR TREATING VIRAL INFECTIONS” (HADASIT MEDICAL RESEARCH SERVICES AND DEVELOPMENT LTD., priority 2018, published 2023)
Read-outs that look alike come from different tables or passages of the source.

Tested on: HCMV
Assay: Ex vivo HCMV infection of human decidual (placental) tissue organ cultures, viral mRNA copy number
Type: cell-based, human cytomegalovirus
Settings: for EC50: Human betaherpesvirus 5; for Dose of drug alone at Fa 0.9: Fa 0.9, drug alone; for DRI (dose reduction index): combination artemisone + maribavir
Method: Organ cultures were washed and stored at -80° C. until assayed. RNA was extracted, and the purified RNA samples were subjected to reverse transcription (RT), followed by quantitative real-time PCR. The viral mRNA copy number was normalized by the cellular housekeeping gene β-actin.
We employed our model of HCMV infection in human decidual tissues (representing the maternal aspect of the chimeric human placenta), maintained as multi-cell-type 3D organ cultures as described in Weisblum Y. et al. J Virol 2011 85(24): 13204-13. doi: 10.1128/JVI.05749-11. For infection of the organ cultures, decidual tissues were placed in 48-well plates and inoculated with the virus (5x10^4 plaque forming units (PFU)/well) for 12 h to allow effective viral adsorption. The tissues were further monitored for viral infection and spread for 7 days. For determination of the drug EC50 values of in the tissues, serial drug concentrations: each drug separately or combination of the drugs were added to the infected decidual tissues during viral adsorption at any further medium replacement to keep the drug concentration constant. The results were compared to samples to which the drug was not added. The EC50 was defined as the drug concentration required to reduce the viral mRNA copy number by 50%. The effect of drug combinations was tested in accordance with the Chou-Talalay method. All comparative experiments were performed in parallel on tissues from the same donor.
The dose reduction index (DRI) was then calculated as described in Chou. As described earlier, the DRI is a measure of how many folds the dose of each drug in a synergistic combination may be reduced at a given effect level compared with the doses of each drug alone. For each one of the below tables: Fa - fraction of virus affected; doses are provided in µm.

SMILES: CC1CCC2[C@@H](C)[C@H](N3CCS(=O)(=O)CC3)OC3O[C@]4(C)CCC1C32OO4 (stereo in doubt) [artemisone]
- EC50 (ex vivo, Fa 0.5, drug alone, read-out: Dose of drug alone at Fa 0.5): 425 nM
- EC50 (sole drug, ex vivo decidual tissues, read-out: EC50 (concentration required to reduce the viral mRNA copy number by 50%)): 500 nM
- Dose of drug alone at Fa 0.05 (ex vivo, Fa 0.05, drug alone): 0.00699 µm
- Dose of drug alone at Fa 0.75 (ex vivo, Fa 0.75, drug alone): 1.965 µm
- Dose of drug alone at Fa 0.9 (ex vivo): 9.1 µm
- Dose of drug alone at Fa 0.9 (ex vivo, listed as Art): 9.098 µm
- Dose of drug alone at Fa 0.95 (ex vivo, Fa 0.95, drug alone): 25.7963 µm
- Dose of drug alone at Fa 0.97 (ex vivo, Fa 0.97, drug alone): 54.1517 µm
- DRI (dose reduction index) (ex vivo, Fa 0.05): 0.1239
- DRI (dose reduction index) (ex vivo, Fa 0.5): 1.12
- DRI (dose reduction index) (ex vivo, Fa 0.75): 2.546
- DRI (dose reduction index) (ex vivo, Fa 0.9): 5.8
- DRI (dose reduction index) (ex vivo, Fa 0.9, listed as Art): 5.789
- DRI (dose reduction index) (ex vivo, Fa 0.95, listed as Art): 10.1210
- DRI (dose reduction index) (ex vivo, Fa 0.97): 15.0614
